Source: patent publication US7998950B2, “Antiviral compounds” (Gilead Sciences, Inc., priority 2008, dated 2011)

What follows are compounds tested on HIV-IIIb (assay: Antiviral assay in MT-2 cells infected with HIV-IIIb). Conditions: Human immunodeficiency virus 1, IIIB, MT2, 120 h, MT-2 cells infected with HIV-IIIb, m.o.i. 0.01, 10% FBS, 5 days at 37° C., CellTiter-Glo chemiluminescence; read-out: EC50 in MT-2 cells.
Type: cell-based
`CNC(=O)c1c(O)c2ncc(Cc3ccc(F)cc3)c3c2n(c1=O)C[C@@H](Cn1ccnc1)O3` [Example 183] showed an EC50 of 1.8 nM.
With `CNC(=O)[C@@H]1Cn2c(=O)c(C(=O)NCCCO)c(O)c3ncc(Cc4ccc(F)cc4)c(c32)O1` [Example 166] the EC50 was 9 nM.
For `COCC1Cn2c(=O)c(C(=O)NCCO)c(O)c3ncc(Cc4ccc(F)cc4)c(c32)O1` (centres unmarked) [A-31], the EC50 was 1.5 nM.
In the case of `CNC(=O)c1c(O)c2ncc(Cc3ccc(F)cc3)c3c2n(c1=O)C[C@H](CN(C)C(C)=O)O3` [Example 209], the EC50 is reported as 5.1 nM.
`CNC(=O)c1c(O)c2ncc(Cc3ccc(F)cc3)c3c2n(c1=O)C[C@@H](Cn1ccnc1C(=O)NC)O3` [Example 205] gave an EC50 of 1 nM.
`CNC(=O)[C@@H]1Cn2c(=O)c(C(=O)NCCOC)c(O)c3ncc(Cc4ccc(F)cc4)c(c32)O1` [Example 164] showed an EC50 of 37 nM.
`CNC(=O)c1c(O)c2ncc(Cc3ccc(F)cc3)c3c2n(c1=O)CC(F)(F)CN3C` [Example 163] was tested, and the EC50 was 18.5 nM.
With `COCCNC(=O)c1c(O)c2ncc(Cc3ccc(F)cc3)c3c2n(c1=O)CC(F)(F)CN3` [A-10] the EC50 was 4 nM.
Compound `CC(C)(C#N)CNC(=O)C1=Cn2c(=O)c(C(=O)NC3CC3)c(O)c3ncc(Cc4ccc(F)cc4)c(c32)O1` [Example 135] has an EC50 of 2.7 nM.
For `O=C(NCCO)c1c(O)c2ncc(Cc3ccc(F)cc3)c3c2n(c1=O)CCO3` [compound 12], the EC50 was 3.2 nM.
`CCNC(=O)C1=Cn2c(=O)c(C(=O)NC)c(O)c3ncc(Cc4ccc(F)cc4)c(c32)O1` [A-90] was tested, and the EC50 was 2.9 nM.
With `CCN(CC)C(=O)C1=Cn2c(=O)c(C(=O)NC)c(O)c3ncc(Cc4ccc(F)cc4)c(c32)O1` [Example 103] the EC50 was 10 nM.
In the case of `N#CCCNC(=O)c1c(O)c2ncc(Cc3ccc(F)cc3)c3c2n(c1=O)C=C(C(=O)N1CCCCC1)O3` [Example 132], the EC50 is reported as 37.4 nM.
Compound `CNC(=O)c1c(O)c2ncc(Cc3ccc(F)cc3)c3c2n(c1=O)C[C@@H](C(=O)NCC(C)(C)O)O3` [Example 174] has an EC50 of 2.6 nM.
Work on `CNC(=O)[C@@H]1Cn2c(=O)c(C(N)=O)c(O)c3ncc(Cc4ccc(F)cc4)c(c32)O1` [Example 167] yielded an EC50 of 25.6 nM.
Work on `CNC(=O)c1c(O)c2ncc(Cc3ccc(F)cc3)c3c2n(c1=O)C=C(C(=O)N1CCOCC1)O3` [A-83] yielded an EC50 of 37 nM.
`CNC(=O)c1c(O)c2ncc(Cc3ccc(F)cc3)c3c2n(c1=O)C=C(C(=O)NCC1(C#N)CC1)O3` [Example 138] gave an EC50 of 1.5 nM.
For `O=C(NCCN1CCCC1)c1c(O)c2ncc(Cc3ccc(F)cc3)c3c2n(c1=O)CC(F)(F)CN3` [Example 156], the EC50 was 34 nM.
`O=C(NCCN1CCNCC1)c1c(O)c2ncc(Cc3ccc(F)cc3)c3c2n(c1=O)CCO3` [compound 18] gave an EC50 of 20 nM.
`CCNC(=O)C1=Cn2c(=O)c(C(=O)NCCOC)c(O)c3ncc(Cc4ccc(F)cc4)c(c32)O1` [Example 104] was tested, and the EC50 was 3 nM.
`CC(C)(CO)NC(=O)C1=Cn2c(=O)c(C(=O)NC3CC3)c(O)c3ncc(Cc4ccc(F)cc4)c(c32)O1` [Example 128] showed an EC50 of 7.1 nM.
`CNC(=O)c1c(O)c2ncc(Cc3ccc(F)cc3)c3c2n(c1=O)C[C@@H](C(=O)NC)O3` [A-65] gave an EC50 of 6.3 nM.
With `CNC(=O)C(=O)NC[C@@H]1Cn2c(=O)c(C(=O)NC)c(O)c3ncc(Cc4ccc(F)cc4)c(c32)O1` [Example 199] the EC50 was 6.7 nM.
Work on `O=C(NCCN1CCNC1=O)c1c(O)c2ncc(Cc3ccc(F)cc3)c3c2n(c1=O)CCO3` [compound 14] yielded an EC50 of 5.5 nM.
`CNC(=O)c1c(O)c2ncc(Cc3ccc(F)cc3)c3c2n(c1=O)C=C(C(=O)N1CCCCC1)O3` [Example 131] was tested, and the EC50 was 13.9 nM.
Work on `O=C(NCCN1CCOCC1)c1c(O)c2ncc(Cc3ccc(F)cc3)c3c2n(c1=O)CCO3` [compound 13] yielded an EC50 of 7 nM.

Same assay, conditions: Human immunodeficiency virus 1, IIIB, MT2, 120 h, read-out: EC50 in MT-2 cells (nM)
In the case of `CNC(=O)c1c(O)c2ncc(Cc3ccc(F)cc3)c3c2n(c1=O)C[C@@H](CN(C)S(=O)(=O)N(C)C)O3` [Example 210], the EC50 is reported as 5 nM.
For `CNC(=O)c1c(O)c2ncc(Cc3ccc(F)cc3)c3c2n(c1=O)C=C(C(=O)N(C)C)O3` [A-81], the EC50 was 10.5 nM.

Same assay, conditions: MT-2 cells infected with HIV-IIIb, m.o.i. 0.01, 10% FBS, 5 days at 37° C., CellTiter-Glo chemiluminescence; listed as A-177; read-out: EC50 in MT-2 cells
Compound `CCN(CC)C(=O)C1=Cn2c(=O)c(C(=O)NC)c(O)c3ncc(Cc4ccc(F)cc4)c(c32)O1` [Example 125] has an EC50 of 5.5 nM.
